Measured values taken from patent US20250221953A1 (The University of Chicago, priority 2022, published 2025).
Structures can show the parent of a compound that is named as a salt.

Tested on: Jurkat T cells
Type: cell-based, human
Details: IL-2 production level in treated group compared to control group; 48 hours treatment, then anti-CD3/anti-CD28 12 hours
Text: Two preliminary screens were designed and performed.
To construct “blood chemical compound library for cell-based screening purposes, components such as antibodies that are difficult to distinguish due to a wide variety, and some supplements that only function at a whole organism level including fish oils and herbs were excluded. Physiological ranges of serum levels of individual blood chemicals are available in the human metabolome database (https://hmdb.ca/) and applied in the experimental design. For first screen 1a, Jurkat T cells were treated with blood chemical library for 48 hours and then activated with 2.5 μg/mL anti-CD3 and 0.5 μg/mL anti-CD28 antibodies for another 12 hours, followed by measurement of IL-2 level in medium supernatant using ELISA kit (Biolegend). For first screen 1b, 1×10^5 PD-1^+ Jurkat T cells were co-cultured with 2×10^4 H596 (PD-L1^+) cells in a well of 96-well plate for 60 hours, and then activated with 2.5 μg/mL anti-CD3 and 0.5 μg/mL anti-CD28 antibodies for another 12 hours, followed by measurement of IL-2 level in medium supernatant using ELISA kit. Please also refer to Resources Table and Table 1-2 for more details.

Row | Compound | Relative changed percentage (%)
1 | O=C([O-])[C@H](O)[C@@H](O)[C@H](O)[C@H](O)CO.[K+] [Potassium Gluconate] | 97.7133
2 | N[C@@H](CO)C(=O)O [L-Serine] | −22.11
3 | L-A-PHOSPHATIDYLCHOLINE TYPE XVI-E | 38.1
4 | [Na+].[Na+].[O]=[Mo](=[O])([O-])[O-] [Sodium Molybdate] | 22.1968
5 | C[C@@H]1O[C@@H](OC[C@H]2O[C@@H](Oc3c(-c4ccc(O)c(O)c4)oc4cc(O)cc(O)c4c3=O)[C@H](O)[C@@H](O)[C@@H]2O)[C@H](O)[C@H](O)[C@H]1O [Rutoside trihydrate] | 14.9881
6 | O=c1cc[nH]c(=O)[nH]1 [URACIL] | 2.457
7 | O=C(O)[C@@H]1C[C@@H](O)CN1 [trans-4-Hydroxy-L-proline] | 5.281
8 | ZINC SULFATE HEPTAHYDRATE | 1.046
9 | O=C([O-])O.[Na+] [SODIUM BICARBONATE] | 50.35
10 | NC(=O)C[C@H](N)C(=O)O [L-Asparagine] | 28.4787
11 | (−)-EPINEPHRINE | 53.12
12 | Chromium picolinate | −4.067
13 | C[C@]12CCC(=O)C[C@@H]1CC[C@@H]1[C@@H]2CC[C@]2(C)[C@@H](O)CC[C@@H]12 [5ALPHA-DIHYDROTESTOSTERONE (DIIT)/DIIT, 5ALPHA-DIHYDROTESTOSTERONE] | −3.457
14 | CCO [ALCOHOL] | 9.841
15 | O=S(=O)([O-])[O-].[O]=[V+2] [Vanadylsulfate] | 7.094
16 | XANTHOPHYLL FROM MARIGOLD | 7.531
17 | N[C@@H](CC(=O)[O-])C(=O)[O-].[K+].[K+] [L-Aspartic acid potassium salt] | 4.421
18 | CCCCCCCC/C=C\CCCCCCCC(=O)O [Oleic acid] | 77.53
19 | N[C@@H](Cc1ccc(O)cc1)C(=O)O [L-Tyrosine] | −13.45

Row | Compound | Relative changed percentage (%)
20 | MANGANESE SULFATE MONOHYDRATE [MANGANESE SULFATE MONOHYDRATE,] | −14.23
21 | PROINSULIN C-PEPTIDE (55-89) [PROINSULIN C-PEPTIDE (55-89)/c-peptide] | 17.8836
22 | C-PEPTIDE FRAGMENT 3-33, HUMAN [C-PEPTIDE FRAGMENT 3-33, HUMAN/C-peptide] | −11.7
23 | Cl.NCCC[C@H](N)C(=O)O [L-ORNITHINE MONOHYDROCHLORIDE] | 8.054
24 | N[C@@H](CC(=O)[O-])C(=O)[O-].[Mg+2] [Magnesium Aspartate] | −4.156
25 | O.OC[C@H]1O[C@@H](O[C@H]2[C@H](O)[C@@H](O)C(O)O[C@@H]2CO)[C@H](O)[C@@H](O)[C@H]1O (stereo partly drawn) [D-LACTOSE MONOHYDRATE] | 22.47
26 | O=C(O)CC(O)(CC(=O)O)C(=O)O [Citric Acid] | −36.8
27 | O=C([O-])CC(O)(CC(=O)[O-])C(=O)[O-].O=C([O-])CC(O)(CC(=O)[O-])C(=O)[O-].[Zn+2].[Zn+2].[Zn+2] [Zinc Citrate] | −2.073
28 | O=C(O)CCCC[C@@H]1SC[C@@H]2NC(=O)N[C@@H]21 [d-Biotin] | 29.84
29 | O=C([O-])CC(O)(CC(=O)[O-])C(=O)[O-].[K+].[K+].[K+] [Potassium Citrate] | 58.7511
30 | Alpha-Tocopherol [(+/−)-A-TOCOPHEROL/Alpha-Tocopherol] | 40.65
31 | NC(=O)c1cccnc1 [Niacinamide] | 95.23
32 | [O]=[Zn] [Zinc Oxide] | 3.627
33 | [Cl][Sn][Cl] [TIN(II) CHLORIDE/Tin, TIN(II) CHLORIDE] | 18.86
34 | CC(C)[C@H](N)C(=O)O [L-Valine] | 5.296
35 | [Cl-].[Na+] [SODIUM CHLORIDE] | 36.53
36 | N[C@@H](Cc1c[nH]c2ccccc12)C(=O)O [L-Tryptophan] | 1.358
37 | CC(C)C[C@H](N)C(=O)O [L-Leucine] | −7.16
38 | O=P([O-])([O-])O.[K+].[K+] [Dipotassium Phosphate] | −5.393

Row | Compound | Relative changed percentage (%)
39 | [Cl][Cd][Cl] [CADMIUM CIILORIDE/cadmium, CADMIUM CIILORIDE] | 32.11
40 | NC(=O)NCCC[C@H](N)C(=O)O [L-CITRULLINE] | −3.384
41 | OC[C@H]1O[C@@H](Oc2c[nH]c3ccccc23)[C@H](O)[C@@H](O)[C@@H]1O [INDOXYL beta-D-GLUCOSIDE] | 30.46
42 | [F-].[Na+] [Sodium Fluoride] | −43.81
43 | O=C([O-])CC(O)(CC(=O)[O-])C(=O)[O-].O=C([O-])CC(O)(CC(=O)[O-])C(=O)[O-].[Ca+2].[Ca+2].[Ca+2] [Calcium citrate] | −14.58
44 | CC/C=C\C/C=C\C/C=C\C/C=C\C/C=C\C/C=C\CCC(=O)O [Docosahexaenoic Acid] | −29.89
45 | c1ncc2[nH]cnc2n1 [PURINE] | 63.4263
46 | Cc1ncc(CO)c(CO)c1O.Cl [Pyridoxine Hydrochloride] | −17.45
47 | Iron Gluconate | 3.271
48 | O[C@H]1[C@H](O)[C@@H](O)[C@H](O)[C@@H](O)[C@H]1O [MYO-INOSITOL] | 40.7157
49 | [S]=[Pb] [LEAD(II) SULFIDE] | −13.63
50 | C=C1CC[C@H](O)C/C1=C/C=C1\CCC[C@]2(C)[C@@H]([C@H](C)CCCC(C)C)CC[C@@H]12 [CHOLECALCIFEROL CRYSTALLINE, CHOLECALCIFEROL] | 25.45
51 | NS(=O)(=O)c1cc(C(=O)O)c(NCc2ccco2)cc1Cl [FUROSEMIDE/LASIX, FUROSEMIDE, reference compound] | 29.01
52 | CCCCCCCCCCCCCCCC(=O)O [Palmitic Acid] | −2.643
53 | O=C(O)C(=O)O [OXALIC ACID SODIUM SALT] | −16.88
54 | CCCCCCCC/C=C\CCCCCCCCCCCCCC(=O)O [Nervonic acid] | 37.68
55 | CCCCCCCCCCCCCC(=O)O [Myristic Acid] | −17.39
56 | Bromelain from pineapple stem | 16.0114
